Earlier results as cited in US20230263779A1, “METHODS OF TREATING SOLID TUMORS USING NANOPARTICLE MTOR INHIBITOR COMBINATION THERAPY” (Abraxis BioScience, LLC, priority 2015, published 2023).

Assays:
[1] = in vivo

Structure (SMILES): COc1ccc(COc2cc3oc(=O)c4cc(C(C)O)ccc4c3cc2OC)cc1 (centres unmarked) [Palomid 529]
- affinity for ABCB1/ABCG2 (ABCB1/ABCG2): lacks affinity
- brain penetration [1]: good brain penetration
